Source: ChEMBL document CHEMBL4837181 (Eur J Med Chem, 2020)

Assays:
[1] = Average plasma concentration at steady state in mouse at 62 mg/kg administered bid; type: ADME, organism-based; conditions: in vivo
[2] = Solubility of the compound in buffer at pH 1.58 to 6.7; type: physicochemical
[3] = Solubility in simulated gastric fluid; type: physicochemical
[4] = Stability in human plasma assessed as parent compound remaining measured after 24 hrs by LC-MS/MS analysis; type: ADME, cell-free; conditions: read-out: Stabilty
[5] = Oral bioavailability in male cynomolgus monkey at 825 micromol/kg; type: ADME, organism-based, Macaca fascicularis; conditions: in vivo, at 825 µmol/kg

Compound	Cave [1] [µM]	solubility [2] [mg/mL]	solubility [3] [mg/mL]	remaining at 24 h [4] [%]	F [5] [%]
Cn1cc(C[C@@H](N)C(=O)O)c2ccccc21 [INDOXIMOD]	> 7				
CCOC(=O)[C@@H](Cc1cn(C)c2ccccc12)NC(=O)[C@@H](N)CC(C)C.Cl		16.3	17.1	6	6
